Format in all cases: cell-based
The target in assay [1] is T1, protein kinases (human kinome) (Homo sapiens, UniProt Q9NWZ3).
T1 sequence (Q9NWZ3 1-460): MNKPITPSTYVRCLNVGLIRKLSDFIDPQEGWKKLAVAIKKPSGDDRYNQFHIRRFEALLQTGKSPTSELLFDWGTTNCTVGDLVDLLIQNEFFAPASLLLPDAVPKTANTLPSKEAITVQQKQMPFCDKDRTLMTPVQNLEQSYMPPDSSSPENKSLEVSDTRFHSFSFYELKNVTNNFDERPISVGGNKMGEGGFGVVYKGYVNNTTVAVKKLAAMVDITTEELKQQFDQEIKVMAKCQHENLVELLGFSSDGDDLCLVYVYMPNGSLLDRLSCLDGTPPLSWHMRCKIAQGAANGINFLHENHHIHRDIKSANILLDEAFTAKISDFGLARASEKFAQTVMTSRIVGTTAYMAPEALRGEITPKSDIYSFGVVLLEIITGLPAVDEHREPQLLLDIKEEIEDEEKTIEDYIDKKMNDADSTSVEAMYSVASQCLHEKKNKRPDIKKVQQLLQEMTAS
The note with it: for logFC: IRAK4 (Q9NWZ3-1).

In assay [2] the target is protein kinases (human kinome) (Homo sapiens, UniProt P36894). The note with it: for logFC: BMPR1A (P36894).
protein kinases (human kinome) (Homo sapiens, UniProt P36894), sequence (P36894 24-532): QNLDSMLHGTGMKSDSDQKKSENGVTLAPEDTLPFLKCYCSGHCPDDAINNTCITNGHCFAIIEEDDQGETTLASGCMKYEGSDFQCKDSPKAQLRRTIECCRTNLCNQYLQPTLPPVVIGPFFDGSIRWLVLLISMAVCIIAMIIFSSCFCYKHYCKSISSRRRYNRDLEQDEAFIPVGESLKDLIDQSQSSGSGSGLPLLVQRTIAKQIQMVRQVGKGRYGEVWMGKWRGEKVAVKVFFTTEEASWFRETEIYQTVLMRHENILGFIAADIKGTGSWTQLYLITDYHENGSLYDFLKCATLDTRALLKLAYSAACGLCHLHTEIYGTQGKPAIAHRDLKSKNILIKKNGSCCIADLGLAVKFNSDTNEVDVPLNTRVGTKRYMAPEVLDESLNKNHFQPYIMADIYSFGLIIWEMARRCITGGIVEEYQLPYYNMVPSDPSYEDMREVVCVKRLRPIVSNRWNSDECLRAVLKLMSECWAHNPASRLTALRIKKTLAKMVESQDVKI
The target of assay [3] is protein kinases (human kinome) (Homo sapiens, UniProt P19525). The note with it: for logFC: EIF2AK2 (P19525).
protein kinases (human kinome) (Homo sapiens, UniProt P19525), sequence (P19525 whole entry): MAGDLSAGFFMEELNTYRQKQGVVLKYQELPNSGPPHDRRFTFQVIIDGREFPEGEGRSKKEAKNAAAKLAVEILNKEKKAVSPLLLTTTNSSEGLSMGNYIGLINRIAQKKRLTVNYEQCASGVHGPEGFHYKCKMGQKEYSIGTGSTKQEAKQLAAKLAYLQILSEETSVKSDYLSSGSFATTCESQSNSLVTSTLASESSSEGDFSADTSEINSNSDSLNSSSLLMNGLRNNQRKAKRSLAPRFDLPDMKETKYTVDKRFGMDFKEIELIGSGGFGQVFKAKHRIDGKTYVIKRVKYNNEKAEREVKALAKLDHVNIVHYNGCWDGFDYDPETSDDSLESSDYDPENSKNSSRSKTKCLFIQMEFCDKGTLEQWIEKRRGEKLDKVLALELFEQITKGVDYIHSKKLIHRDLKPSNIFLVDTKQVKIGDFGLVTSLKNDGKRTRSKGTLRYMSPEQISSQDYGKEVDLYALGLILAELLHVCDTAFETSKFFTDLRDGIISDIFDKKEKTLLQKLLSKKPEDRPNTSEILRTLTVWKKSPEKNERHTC
The target in assay [4] is T2, protein kinases (human kinome) (Homo sapiens, UniProt O14757).
T2 sequence (O14757 1-476): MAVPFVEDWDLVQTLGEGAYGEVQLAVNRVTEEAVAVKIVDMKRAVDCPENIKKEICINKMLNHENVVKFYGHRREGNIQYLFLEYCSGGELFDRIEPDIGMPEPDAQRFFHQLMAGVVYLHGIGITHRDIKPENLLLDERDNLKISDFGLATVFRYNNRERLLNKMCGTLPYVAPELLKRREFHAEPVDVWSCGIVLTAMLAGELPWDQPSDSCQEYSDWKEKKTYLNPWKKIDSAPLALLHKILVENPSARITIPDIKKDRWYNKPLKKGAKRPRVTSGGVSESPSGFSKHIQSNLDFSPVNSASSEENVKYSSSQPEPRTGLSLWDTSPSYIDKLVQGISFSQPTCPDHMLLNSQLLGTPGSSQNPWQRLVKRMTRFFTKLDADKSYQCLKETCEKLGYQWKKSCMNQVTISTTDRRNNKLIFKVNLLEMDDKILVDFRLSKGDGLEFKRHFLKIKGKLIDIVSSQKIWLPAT
The note with it: for logFC: CHEK1 (O14757).

For assay [5], the target named is protein kinases (human kinome) (Homo sapiens, UniProt Q9P1W9). The note with it: experiment wp076; for logFC: PIM2 (Q9P1W9).
protein kinases (human kinome) (Homo sapiens, UniProt Q9P1W9), sequence (Q9P1W9 whole entry): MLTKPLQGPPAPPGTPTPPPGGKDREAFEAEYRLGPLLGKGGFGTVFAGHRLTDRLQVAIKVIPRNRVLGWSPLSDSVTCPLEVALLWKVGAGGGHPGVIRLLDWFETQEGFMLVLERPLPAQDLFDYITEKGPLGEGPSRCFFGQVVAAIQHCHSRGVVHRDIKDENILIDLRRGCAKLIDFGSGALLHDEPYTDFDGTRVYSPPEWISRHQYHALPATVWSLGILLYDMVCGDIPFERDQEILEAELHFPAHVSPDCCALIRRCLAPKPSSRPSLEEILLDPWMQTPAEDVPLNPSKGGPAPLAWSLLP
Assay [6] addresses T3, protein kinases (human kinome) (Homo sapiens, UniProt Q9Y616).
T3 sequence (Q9Y616 1-596): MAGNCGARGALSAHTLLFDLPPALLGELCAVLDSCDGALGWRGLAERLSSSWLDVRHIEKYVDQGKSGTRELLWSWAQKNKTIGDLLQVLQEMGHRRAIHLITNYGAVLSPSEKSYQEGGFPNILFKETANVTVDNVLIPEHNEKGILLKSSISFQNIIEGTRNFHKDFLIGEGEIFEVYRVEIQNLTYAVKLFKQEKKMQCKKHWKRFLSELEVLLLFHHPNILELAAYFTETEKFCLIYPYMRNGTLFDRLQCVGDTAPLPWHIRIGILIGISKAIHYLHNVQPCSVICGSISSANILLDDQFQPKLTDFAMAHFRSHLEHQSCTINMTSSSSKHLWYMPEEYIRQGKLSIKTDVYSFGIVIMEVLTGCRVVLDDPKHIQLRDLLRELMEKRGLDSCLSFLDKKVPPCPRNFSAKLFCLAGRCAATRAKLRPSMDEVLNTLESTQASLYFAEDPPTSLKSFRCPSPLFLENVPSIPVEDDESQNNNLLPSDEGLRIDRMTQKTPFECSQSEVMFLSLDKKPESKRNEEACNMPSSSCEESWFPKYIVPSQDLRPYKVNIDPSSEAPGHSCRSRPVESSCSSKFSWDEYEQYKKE
The note with it: experiment wp146; for logFC: IRAK3 (Q9Y616).

Assay [7] deals with protein kinases (human kinome) (Homo sapiens, UniProt Q13882). The note with it: for logFC PTK6 (Q13882): Experiment wp114, direction of change down; for logFC: PTK6 (Q13882), experiment wp114.
protein kinases (human kinome) (Homo sapiens, UniProt Q13882), sequence (Q13882 whole entry): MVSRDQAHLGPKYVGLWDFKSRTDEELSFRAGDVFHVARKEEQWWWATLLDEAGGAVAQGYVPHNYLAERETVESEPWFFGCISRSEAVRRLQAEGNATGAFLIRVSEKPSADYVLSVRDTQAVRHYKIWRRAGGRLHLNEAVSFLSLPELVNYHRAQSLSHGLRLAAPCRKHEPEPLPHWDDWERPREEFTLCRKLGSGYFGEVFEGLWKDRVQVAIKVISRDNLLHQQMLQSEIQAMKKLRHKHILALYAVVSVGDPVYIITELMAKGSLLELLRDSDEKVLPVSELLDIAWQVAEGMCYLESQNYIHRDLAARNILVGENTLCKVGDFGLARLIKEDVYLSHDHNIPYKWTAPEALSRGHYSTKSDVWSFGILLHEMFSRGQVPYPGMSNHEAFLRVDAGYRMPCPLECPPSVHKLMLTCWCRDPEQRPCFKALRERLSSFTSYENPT
Assay [8] addresses protein kinases (human kinome) (Homo sapiens, UniProt O00311). The note with it: for logFC: CDC7 (O00311-1).
In assay [9] the target is protein kinases (human kinome) (Homo sapiens, UniProt O00746). The note with it: NME4 (O00746); experiment wp084.
protein kinases (human kinome) (Homo sapiens, UniProt O00746), sequence (O00746 29-187): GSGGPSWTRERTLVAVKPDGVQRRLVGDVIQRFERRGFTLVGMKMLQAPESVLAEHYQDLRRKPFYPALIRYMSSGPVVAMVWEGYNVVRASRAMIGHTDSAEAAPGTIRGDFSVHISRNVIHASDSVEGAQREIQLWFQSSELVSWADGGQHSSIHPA

Where two headings read alike, the source gives them in different places.

protein kinases (human kinome) (Homo sapiens, UniProt O00311), sequence (O00311 whole entry): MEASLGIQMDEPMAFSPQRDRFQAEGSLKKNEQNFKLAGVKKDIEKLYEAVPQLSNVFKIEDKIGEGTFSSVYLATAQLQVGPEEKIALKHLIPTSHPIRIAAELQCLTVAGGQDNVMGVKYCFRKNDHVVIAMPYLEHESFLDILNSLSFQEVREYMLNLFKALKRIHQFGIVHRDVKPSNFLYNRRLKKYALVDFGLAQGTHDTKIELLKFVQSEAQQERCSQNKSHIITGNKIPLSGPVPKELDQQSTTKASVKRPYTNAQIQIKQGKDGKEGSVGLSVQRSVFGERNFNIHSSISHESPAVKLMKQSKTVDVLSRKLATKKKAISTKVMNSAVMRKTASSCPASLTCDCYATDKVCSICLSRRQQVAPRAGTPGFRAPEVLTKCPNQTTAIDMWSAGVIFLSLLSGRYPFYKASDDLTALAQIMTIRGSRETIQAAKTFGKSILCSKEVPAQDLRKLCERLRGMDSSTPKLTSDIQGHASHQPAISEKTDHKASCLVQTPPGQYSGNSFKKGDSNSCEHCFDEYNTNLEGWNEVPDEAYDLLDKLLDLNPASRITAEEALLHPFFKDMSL

Consider `CC(C)S(=O)(=O)c1ccccc1Nc1nc(Nc2ccc(N3CCN(CCOCCOCCNC(=O)CNc4cccc5c4C(=O)N(C4CCC(=O)NC4=O)C5=O)CC3)cc2)ncc1Cl` (centres unmarked) [TL12.186], for which the logFC in assay [1] (experiment wp131) is given as −0.4293; in assay [1] (experiment wp137), −0.4185; in [2] (experiment wp131) it was −0.8334; in assay [2] (experiment wp137) it was −0.6566. The “logFC of IRAK4 (Q9NWZ3-1)” value is listed as −0.4293 in [1] (experiment wp131) and −0.4185 in assay [1] (experiment wp137). The “logFC of BMPR1A (P36894)” value is recorded as −0.8334 in assay [2] (experiment wp131) and −0.6566 in assay [2] (experiment wp137).

Consider `CS(=O)(=O)Nc1cccc(-c2csc3cnc(Nc4ccc(N5CCN(CCCCCOc6cccc7c6C(=O)N(C6CCC(=O)NC6=O)C7=O)CC5)cc4)nc23)c1` (centres unmarked) [DB0614, N-(3-(2-((4-(4-(5-((2-(2,6-Dioxopiperidin-3-yl)-1,3-dioxoisoindolin-4-yl)oxy)pentyl)piperazin-1-yl)phenyl)amino)thieno[3,2-d]pyrimidin-7-yl)phenyl)methanesulfonamide], for which the logFC in [3] (experiment wp117) is on record as −0.3221. The “logFC of EIF2AK2 (P19525)” value in assay [3] (Experiment wp117) is −0.3221.

`O=C1CCC(N2C(=O)c3cccc(NCCCCCCCCN4CCC(NC(=O)c5[nH]ncc5NC(=O)c5c(Cl)cccc5Cl)CC4)c3C2=O)C(=O)N1` (centres unmarked) [MFH.5.126.1]: in assay [4] (experiment wp076), the logFC is listed as −0.3606 and the “logFC of CHEK1 (O14757)” value is on record as −0.3606. Also, in assay [5], the logFC is listed as −3.019 and the “logFC of PIM2 (Q9P1W9)” value is listed as −3.019.

For the molecule `Cc1cc(Nc2ncc(Br)c(Nc3cccc(F)c3C(N)=O)n2)ccc1S(=O)(=O)NCCOCCOCCOCCOCCNc1cccc2c1C(=O)N(C1CCC(=O)NC1=O)C2=O` (centres unmarked) [TMX.02.174], in assay [6], the logFC is given as −1.343 and the “logFC of IRAK3 (Q9Y616)” value is recorded as −1.343.

`CCc1cnn2c(N(Cc3ccc(N)nc3)C(=O)CCOCCOCCOCCNC(=O)CNc3cccc4c3C(=O)N(C3CCC(=O)NC3=O)C4=O)cc(N3CCCC[C@H]3CCO)nc12` (some centres unmarked) [MFH.5.115.2]: in [5], the logFC is on record as −1.679 and the “logFC of PIM2 (Q9P1W9)” value is listed as −1.679.

As to `CC(C)(C)c1nc(-c2cccc(NS(=O)(=O)c3c(F)cccc3F)c2F)c(-c2ccnc(NCCOCCNC(=O)CCOCCOCCNc3cccc4c3C(=O)N(C3CCC(=O)NC3=O)C4=O)n2)s1` (centres unmarked) [DD.03.106], the logFC was −0.3545 in assay [3] (experiment wp147, 2 uM) and −0.4042 in assay [3] (experiment wp147, 4 uM). For the same molecule, the “logFC of EIF2AK2 (P19525)” value is on record as −0.3545 in assay [3] (Experiment wp147, 2 uM) and −0.4042 in assay [3] (Experiment wp147, 4 uM).

`Cc1ncsc1-c1ccc([C@H](C)NC(=O)[C@@H]2C[C@@H](O)CN2C(=O)[C@@H](NC(=O)CCOCCOCCN2CCN(c3ccc(Nc4ncc(Cl)c(Nc5ccccc5S(=O)(=O)C(C)C)n4)cc3)CC2)C(C)(C)C)cc1` [FMF.06.098.1]: the “logFC of IRAK4 (Q9NWZ3-1)” value was −0.6505 in assay [1] (Experiment wp108) and −0.7086 in [1] (experiment wp131). Further, the logFC in assay [1] (experiment wp108) is given as −0.6505; in [1] (experiment wp131) it was −0.7086; in assay [7], −0.4401; in [4] (experiment wp108), −0.3674; in assay [4] (experiment wp114) it was −0.4124; in assay [8] (experiment wp108) it was −0.3323. The molecule further returned a logFC in [8] (experiment wp131) of −0.4109. The “logFC PTK6 (Q13882)” value in assay [7] is −0.4401. Besides, the “logFC of CHEK1 (O14757)” value in [4] (Experiment wp108) is recorded as −0.3674; in assay [4] (Experiment wp114) it was −0.4124. Besides, the “logFC of CDC7 (O00311-1)” value is listed as −0.3323 in assay [8] (Experiment wp108) and −0.4109 in assay [8] (experiment wp131).

With `CN(C)C(=O)c1cc2cnc(Nc3ccc(N4CCN(CCCCNC(=O)COc5cccc6c5C(=O)N(C5CCC(=O)NC5=O)C6=O)CC4)cn3)nc2n1C1CCCC1` (centres unmarked) [BSJ.04.132], in assay [9], the logFC was −0.4467.

Consider `NC(=O)c1c(F)cccc1Nc1nc(Nc2ccc(S(=O)(=O)NCCOCCOCCOCCOCCNc3cccc4c3C(=O)N(C3CCC(=O)NC3=O)C4=O)cc2)ncc1Br` (centres unmarked) [TMX.02.138], for which, in assay [6], the logFC is −1.544 and the “logFC of IRAK3 (Q9Y616)” value is reported as −1.544.

Molecule `CC(=O)c1c(C)c2cnc(Nc3ccc(N4CCN(CCOCCOCCOCCNC(=O)COc5cccc6c5C(=O)N(C5CCC(=O)NC5=O)C6=O)CC4)cn3)nc2n(C2CCCC2)c1=O` (centres unmarked) [BSJ.03.123] returned a logFC in assay [9] of −0.3681.

For the molecule `CC(C)S(=O)(=O)c1ccccc1Nc1nc(Nc2ccc(N3CCN(CCOCCNC(=O)CNc4cccc5c4C(=O)N(C4CCC(=O)NC4=O)C5=O)CC3)cc2)ncc1Cl` (centres unmarked) [SK.3.91], in [7], the “logFC PTK6 (Q13882)” value was −0.4171. Besides, the logFC in assay [7] is recorded as −0.4171; in assay [8] (experiment wp133, 4 hr), −0.3652; in assay [2] (experiment wp105), −0.4077; in assay [2] (experiment wp107), −1.103; in [2] (experiment wp133, 4 hr), −0.8007. Also, the “logFC of CDC7 (O00311-1)” value in assay [8] (experiment wp133, 4 hr) was −0.3652. Also, the “logFC of BMPR1A (P36894)” value in assay [2] (Experiment wp107) is recorded as −1.103; in assay [2] (experiment wp105) it was −0.4077; in assay [2] (experiment wp133, 4 hr), −0.8007.

The values above are taken from patent publication US20240269139A1, “COMPOUNDS FOR TARGETED PROTEIN DEGRADATION OF KINASES” (DANA-FARBER CANCER INSTITUTE, INC., priority 2020, published 2024).
